This passage reports EC50 results from US20250320213A1, “Nitrogen-Containing Heterocyclic Compounds” (Pfizer Inc., priority 2024, published 2025).

This assay concerns the target T1, STAT6 (Homo sapiens, UniProt P42226).
T1 construct: stably transfected HaCaT keratinocyte cell line, which expresses NanoLuc luciferase reporter gene under the transcriptional control of the STAT6 responsive promoter; endogenous in cells; host or cells: HaCaT keratinocyte reporter cell line (stably transfected with a NanoLuc reporter)
T1 sequence (P42226 1-847): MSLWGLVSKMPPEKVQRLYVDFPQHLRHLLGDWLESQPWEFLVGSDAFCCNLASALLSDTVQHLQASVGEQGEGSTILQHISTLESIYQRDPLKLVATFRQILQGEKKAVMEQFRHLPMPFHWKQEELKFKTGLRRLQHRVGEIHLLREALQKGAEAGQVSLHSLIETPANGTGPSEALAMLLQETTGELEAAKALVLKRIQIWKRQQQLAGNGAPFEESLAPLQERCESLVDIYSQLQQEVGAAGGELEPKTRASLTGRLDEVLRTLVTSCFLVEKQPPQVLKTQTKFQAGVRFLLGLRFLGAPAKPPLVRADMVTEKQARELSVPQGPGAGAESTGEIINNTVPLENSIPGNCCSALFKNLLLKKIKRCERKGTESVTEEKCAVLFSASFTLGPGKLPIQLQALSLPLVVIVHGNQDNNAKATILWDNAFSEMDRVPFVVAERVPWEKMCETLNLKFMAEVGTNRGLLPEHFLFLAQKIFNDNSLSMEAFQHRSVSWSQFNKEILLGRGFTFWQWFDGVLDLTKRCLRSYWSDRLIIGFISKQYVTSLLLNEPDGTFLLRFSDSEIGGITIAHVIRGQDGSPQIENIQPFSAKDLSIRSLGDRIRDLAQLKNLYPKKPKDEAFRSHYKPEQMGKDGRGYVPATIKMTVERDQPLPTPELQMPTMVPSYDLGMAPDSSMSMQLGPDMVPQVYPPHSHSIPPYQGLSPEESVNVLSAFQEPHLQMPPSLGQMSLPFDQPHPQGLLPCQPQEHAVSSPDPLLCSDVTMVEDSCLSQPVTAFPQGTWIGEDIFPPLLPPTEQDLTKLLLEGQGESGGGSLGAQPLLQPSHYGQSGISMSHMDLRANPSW
Kind of assay: STAT6 Reporter Luciferase Assay (IL-13 stimulated HaCaT keratinocyte NanoLuc reporter cells). It is filed as cell-based. Particulars: IL-13 stimulated HaCaT STAT6 NanoLuc reporter cells; read-out: Reporter EC50. The essentials: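 Compounds were tested as 11-point, 4-fold series in duplicate, applied for 2 h at 37 °C in low-serum (2% FBS) DMEM. The cells were a stable HaCaT line with NanoLuc under a STAT6-responsive IL-13Ra2 promoter. After 4 h with 0.12 nM IL-13, Nano-Glo luminescence was measured.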
By EC50 is commonly meant the midpoint of the concentration-response curve. Consider `CC(C)n1nc(C(=O)NCc2ccc(NC(=O)N(C)C)cc2)c2c1CCN(c1ccc(C(=O)N3CCC4(COC4)C3)cn1)C2` [Example 228, 5-(5-(2-oxa-6-azaspiro[3.4]octane-6-carbonyl)pyridin-2-yl)-N-(4-(3,3-dimethylureido)benzyl)-1-isopropyl-4,5,6,7-tetrahydro-1H-pyrazolo[4,3-c]pyridine-3-carboxamide], for which the EC50 came to 116 nM. As to `CCNC(=O)CN(C)C(=O)c1ccc(N2CCc3c(c(C(=O)NCc4ccc(NC(=O)N(C)C)cc4)nn3C(C)C)C2)nc1` [Example 229, N-(4-(3,3-dimethylureido)benzyl)-5-(5-((2-(ethylamino)-2-oxoethyl)(methyl)carbamoyl)pyridin-2-yl)-1-isopropyl-4,5,6,7-tetrahydro-1H-pyrazolo[4,3-c]pyridine-3-carboxamide], the EC50 was determined as 592 nM. `CC(C)n1nc(C(=O)NCc2ccc(NC(=O)N(C)C)cc2)c2c1CCN(c1ccc(C(=O)N3C[C@@H]4OCCO[C@@H]4C3)cn1)C2` [Example 239, N-(4-(3,3-dimethylureido)benzyl)-5-(5-((4aR,7aS)-hexahydro-5H-[1,4]dioxino[2,3-c]pyrrole-6-carbonyl)pyridin-2-yl)-1-isopropyl-4,5,6,7-tetrahydro-1H-pyrazolo[4,3-c]pyridine-3-carboxamide]: the EC50 came to 236 nM. The figure for `CC(C)n1nc(C(=O)NCc2ccc(NC(=O)N(C)C)cc2)c2c1CCN(c1ccc(C(=O)N3CCC(C)(C#N)C3)cn1)C2` (stereo not shown) [Example 240, 5-(5-(3-cyano-3-methylpyrrolidine-1-carbonyl)pyridin-2-yl)-N-(4-(3,3-dimethylureido)benzyl)-1-isopropyl-4,5,6,7-tetrahydro-1H-pyrazolo[4,3-c]pyridine-3-carboxamide] is 3630 nM; for `CC(C)n1nc(C(=O)NCc2ccc(NC(=O)N(C)C)cc2)c2c1CCN(c1ccc(C(=O)N3C[C@@H]4CCO[C@@H]4C3)cn1)C2` [Example 241, N-(4-(3,3-dimethylureido)benzyl)-5-(5-((3aS,6aS)-hexahydro-2H-furo[2,3-c]pyrrole-5-carbonyl)pyridin-2-yl)-1-isopropyl-4,5,6,7-tetrahydro-1H-pyrazolo[4,3-c]pyridine-3-carboxamide] it is 330 nM. The figure for `CCOC1CN(C(=O)c2ccc(N3CCc4c(c(C(=O)NCc5ccc(NC(=O)N(C)C)cc5)nn4C(C)C)C3)nc2)C1` [Example 242, N-(4-(3,3-dimethylureido)benzyl)-5-(5-(3-ethoxyazetidine-1-carbonyl)pyridin-2-yl)-1-isopropyl-4,5,6,7-tetrahydro-1H-pyrazolo[4,3-c]pyridine-3-carboxamide] is 352 nM; for `CC(C)n1nc(C(=O)NCc2ccc(NC(=O)N(C)C)cc2)c2c1CCN(c1ccc(C(=O)N3CC4CC(C3)C4O)cn1)C2` (stereo not shown) [Example 243, N-(4-(3,3-dimethylureido)benzyl)-5-(5-(6-hydroxy-3-azabicyclo[3.1.1]heptane-3-carbonyl)pyridin-2-yl)-1-isopropyl-4,5,6,7-tetrahydro-1H-pyrazolo[4,3-c]pyridine-3-carboxamide] it is 1650 nM. Turning to `CC(C)n1nc(C(=O)NCc2ccc(NC(=O)N(C)C)cc2)c2c1CCN(c1ccc(C(=O)N3CC(C)(O)C3)cn1)C2` [Example 244, N-(4-(3,3-dimethylureido)benzyl)-5-(5-(3-hydroxy-3-methylazetidine-1-carbonyl)pyridin-2-yl)-1-isopropyl-4,5,6,7-tetrahydro-1H-pyrazolo[4,3-c]pyridine-3-carboxamide], the EC50 turned out to be 196 nM. The figure for `CC(C)n1nc(C(=O)NCc2ccc(NC(=O)N(C)C)cc2)c2c1CCN(c1ccc(C(=O)N3CC4(COCC(=O)N4)C3)cn1)C2` [Example 288, N-(4-(3,3-dimethylureido)benzyl)-1-isopropyl-5-(5-(6-oxo-8-oxa-2,5-diazaspiro[3.5]nonane-2-carbonyl)pyridin-2-yl)-4,5,6,7-tetrahydro-1H-pyrazolo[4,3-c]pyridine-3-carboxamide] is 1640 nM; for `CC(C)n1nc(C(=O)NCc2ccc(NC(=O)N(C)C)cc2)c2c1CCN(c1ccc(C(=O)N3C[C@H]4COC[C@H]4C3)cn1)C2` [Example 289, N-(4-(3,3-dimethylureido)benzyl)-5-(5-((3aR,6aS)-hexahydro-1H-furo[3,4-c]pyrrole-5-carbonyl)pyridin-2-yl)-1-isopropyl-4,5,6,7-tetrahydro-1H-pyrazolo[4,3-c]pyridine-3-carboxamide] it is 312 nM. The figure for `CC(C)n1nc(C(=O)NCc2ccc(NC(=O)N(C)C)cc2)c2c1CCN(c1ccc(C(=O)N3CC[C@H](C#N)C3)cn1)C2` [Example 291, (S)-5-(5-(3-cyanopyrrolidine-1-carbonyl)pyridin-2-yl)-N-(4-(3,3-dimethylureido)benzyl)-1-isopropyl-4,5,6,7-tetrahydro-1H-pyrazolo[4,3-c]pyridine-3-carboxamide] is 793 nM; for `CC(=O)NC1CN(C(=O)c2ccc(N3CCc4c(c(C(=O)NCc5ccc(NC(=O)N(C)C)cc5)nn4C(C)C)C3)nc2)C1` [Example 292, 5-(5-(3-acetamidoazetidine-1-carbonyl)pyridin-2-yl)-N-(4-(3,3-dimethylureido)benzyl)-1-isopropyl-4,5,6,7-tetrahydro-1H-pyrazolo[4,3-c]pyridine-3-carboxamide] it is 990 nM; for `CC(C)n1nc(C(=O)NCc2ccc(NC(=O)N(C)C)cc2)c2c1CCN(c1ccc(C(=O)N3CC(=O)N(C)[C@H](C)C3)cn1)C2` [Example 293, (R)-5-(5-(3,4-dimethyl-5-oxopiperazine-1-carbonyl)pyridin-2-yl)-N-(4-(3,3-dimethylureido)benzyl)-1-isopropyl-4,5,6,7-tetrahydro-1H-pyrazolo[4,3-c]pyridine-3-carboxamide] it is 100 nM. Consider `CC(C)n1nc(C(=O)NCc2ccc(NC(=O)N(C)C)cc2)c2c1CCN(c1ccc(C(=O)N3CC(=O)NC(C)(C)C3)cn1)C2` [Example 294, 5-(5-(3,3-dimethyl-5-oxopiperazine-1-carbonyl)pyridin-2-yl)-N-(4-(3,3-dimethylureido)benzyl)-1-isopropyl-4,5,6,7-tetrahydro-1H-pyrazolo[4,3-c]pyridine-3-carboxamide], for which the EC50 was 961 nM. To `CC(C)n1nc(C(=O)NCc2ccc(NC(=O)N(C)C)cc2)c2c1CCN(c1ccc(C(=O)N3CCC(O)CC3)cn1)C2` [Example 295, N-(4-(3,3-dimethylureido)benzyl)-5-(5-(4-hydroxypiperidine-1-carbonyl)pyridin-2-yl)-1-isopropyl-4,5,6,7-tetrahydro-1H-pyrazolo[4,3-c]pyridine-3-carboxamide] belongs 310 nM; to `CC(=O)N1C[C@@H]2CN(C(=O)c3ccc(N4CCc5c(c(C(=O)NCc6ccc(NC(=O)N(C)C)cc6)nn5C(C)C)C4)nc3)C[C@@H]2C1` [Example 296, 5-(5-((3aR,6aS)-5-acetyloctahydropyrrolo[3,4-c]pyrrole-2-carbonyl)pyridin-2-yl)-N-(4-(3,3-dimethylureido)benzyl)-1-isopropyl-4,5,6,7-tetrahydro-1H-pyrazolo[4,3-c]pyridine-3-carboxamide], 523 nM. The figure for `CC(C)n1nc(C(=O)NCc2ccc(NC(=O)N(C)C)cc2)c2c1CCN(c1ccc(C(=O)N3CC[C@@H](C#N)C3)cn1)C2` [Example 297, (R)-5-(5-(3-cyanopyrrolidine-1-carbonyl)pyridin-2-yl)-N-(4-(3,3-dimethylureido)benzyl)-1-isopropyl-4,5,6,7-tetrahydro-1H-pyrazolo[4,3-c]pyridine-3-carboxamide] is 225 nM; for `CC(C)n1nc(C(=O)NCc2ccc(NC(=O)N(C)C)cc2)c2c1CCN(c1ccc(C(=O)N3CC4(CCC(=O)N4)C3)cn1)C2` [Example 298, N-(4-(3,3-dimethylureido)benzyl)-1-isopropyl-5-(5-(6-oxo-2,5-diazaspiro[3.4]octane-2-carbonyl)pyridin-2-yl)-4,5,6,7-tetrahydro-1H-pyrazolo[4,3-c]pyridine-3-carboxamide] it is 2540 nM. To `CC(=O)N1[C@H](C)CN(C(=O)c2ccc(N3CCc4c(c(C(=O)NCc5ccc(NC(=O)N(C)C)cc5)nn4C(C)C)C3)nc2)C[C@@H]1C` [Example 299, 5-(5-((3S,5R)-4-acetyl-3,5-dimethylpiperazine-1-carbonyl)pyridin-2-yl)-N-(4-(3,3-dimethylureido)benzyl)-1-isopropyl-4,5,6,7-tetrahydro-1H-pyrazolo[4,3-c]pyridine-3-carboxamide] belongs 241 nM.
